Test results reported in ChEMBL document CHEMBL1201862, “PubChem BioAssay data set” (2004).
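Compound exposure: 48 hours, 5 concentrations, 96-well plates. The concentration for 50% growth inhibition is given as GI50.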 Active and inactive are the calls of the source. No stated cut-off is given here; in the data, active = GI50 up to about 1.1 µM and inactive = higher.

How the values were obtained:
Assay in all cases: inhibition of tumour cell growth, NCI panel, 48 h
[1] = tested on: RXF 631
[2] = tested on: LXFL 529
[3] = tested on: HOP-18
[4] = tested on: DMS-273
[5] = tested on: XF498
[6] = tested on: KM-20L2
[7] = tested on: SNB-78
[8] = tested on: DMS-114
[9] = tested on: M19-MEL

| Structure (SMILES) | GI50 [1] | GI50 [2] | GI50 [3] | GI50 [4] | GI50 [5] | GI50 [6] | GI50 [7] | GI50 [8] | GI50 [9] |
| --- | --- | --- | --- | --- | --- | --- | --- | --- | --- |
| CC[C@@]1(O)C(=O)OCc2c1cc1n(c2=O)Cc2cc3c(N)cccc3nc2-1 [9-AMINOCAMPTOTHECIN] | 0.0375 µM (active) | 0.244 µM (active) | 0.0277 µM (active) | < 0.01 µM (active) | 0.143 µM (active) | 0.0643 µM (active) | 0.574 µM (active) | < 0.01 µM (active) | 0.0198 µM (active) |
| CC12O[C@H](c3ccccc3)[C@H](c3ccccc3)N1C(=O)C1(C(=O)OCc3ccccc3)CC12 (stereo partly drawn) | > 100 µM (inactive) | 26.6 µM (inactive) |  | 80 µM (inactive) | 78.9 µM (inactive) | 25.1 µM (inactive) |  | 39.6 µM (inactive) | > 100 µM (inactive) |
| COc1ccc2c(-c3cc4ccccc4o3)cc(=O)oc2c1 | 36.9 µM (inactive) | > 76.2 µM (inactive) | 48.6 µM (inactive) | 61.8 µM (inactive) | 21.3 µM (inactive) | > 100 µM (inactive) | 35.2 µM (inactive) |  | > 100 µM (inactive) |
| CC(C)COC1Sc2ccccc2S1 |  | 20.7 µM (inactive) | 16.5 µM (inactive) | 19.8 µM (inactive) | > 10 µM (inactive) | 17.5 µM (inactive) | 27.9 µM (inactive) | 12.5 µM (inactive) |  |
| CC1(C)OC2CC3COC(=O)C3CC2O1 (stereo not drawn) | > 100 µM (inactive) | > 100 µM (inactive) | > 100 µM (inactive) | > 100 µM (inactive) |  | > 100 µM (inactive) | > 100 µM (inactive) | > 100 µM (inactive) | > 100 µM (inactive) |
| Cc1cc(O)cc2oc(=O)c3c(O)cc(O)cc3c12 [ALTERNARIOL] |  | 59.6 µM (inactive) | 26.8 µM (inactive) | 23 µM (inactive) | 27.1 µM (inactive) | 27.7 µM (inactive) | 34.5 µM (inactive) | 34.4 µM (inactive) | 58.6 µM (inactive) |
| CCCCCCCCCCCCCCCCNCC(O)CN (stereo not drawn) |  |  | 5.46 µM (inactive) | 3.96 µM (inactive) | 7.29 µM (inactive) | 2.65 µM (inactive) | 2.48 µM (inactive) | 5.69 µM (inactive) | 2.4 µM (inactive) |
| O/N=C1/CCC/C1=C\c1ccccc1 |  | > 100 µM (inactive) | > 100 µM (inactive) | > 100 µM (inactive) | 29.9 µM (inactive) | > 100 µM (inactive) | > 100 µM (inactive) |  | > 10 µM (inactive) |
| COC(=O)C1C(O)C(C)C(O)OC1C(C)C(O)C(C)/C=C\C=C(/C)C(=O)Nc1c(C)c(OC(C)=O)c2c(c1O)C(=O)C(C)=C1OCOC(/C(C)=C/C(C)=O)=C12 (stereo not drawn) |  |  | 15.2 µM (inactive) | 13.3 µM (inactive) | 13.8 µM (inactive) | 12.9 µM (inactive) | 13.2 µM (inactive) | 10.1 µM (inactive) | 13.3 µM (inactive) |
| COc1cc2nc(NCCCCCNC(=O)c3ccco3)nc(N)c2cc1OC | 26.1 µM (inactive) |  | > 100 µM (inactive) | 49.9 µM (inactive) |  | 32.4 µM (inactive) | 28.2 µM (inactive) | 19.9 µM (inactive) | 23 µM (inactive) |
| O=[N+]([O-])c1ccccc1/C=N/C12CC3CC(CC(C3)C1)C2 | > 100 µM (inactive) | 45.5 µM (inactive) | > 100 µM (inactive) | 34.6 µM (inactive) | > 100 µM (inactive) | 51.1 µM (inactive) | 47.1 µM (inactive) |  | > 100 µM (inactive) |
| N#C/C(=C\c1ccc(O)c(O)c1)c1c(C#N)c(N)nn1-c1ccccc1 |  | 8.65 µM (inactive) | 1.04 µM (active) | 6.92 µM (inactive) |  | 38.1 µM (inactive) | 14.6 µM (inactive) |  | 7.4 µM (inactive) |
| CC[C@@]1(O)C[C@H](OC2CC(N(C)C)C(O)C(C)O2)c2c(cc3c(c2O)C(=O)c2c(O)ccc(O)c2C3=O)[C@H]1C(=O)OC (stereo partly drawn) |  |  | 0.212 µM (active) | 0.0213 µM (active) | 0.106 µM (active) | 0.0702 µM (active) | 0.153 µM (active) | 0.119 µM (active) | 0.0461 µM (active) |
| CC(C)c1c2[nH]c3ccccc3c2c(C(C)C)c2[nH]c3ccccc3c12 | > 100 µM (inactive) | > 100 µM (inactive) | > 100 µM (inactive) | 81.5 µM (inactive) | > 100 µM (inactive) | 17.6 µM (inactive) | > 100 µM (inactive) | > 100 µM (inactive) | > 100 µM (inactive) |
| C=C(Br)C(C)(Cl)CCC(Br)C(C)(C)Br (stereo not drawn) |  | 83 µM (inactive) | > 100 µM (inactive) | 39.4 µM (inactive) |  |  | > 100 µM (inactive) | 25.4 µM (inactive) | 34 µM (inactive) |
| COc1cc(C(C)O)c[n+](CCC2CNc3ccccc32)c1 (stereo not drawn) |  | > 100 µM (inactive) |  | > 100 µM (inactive) | > 100 µM (inactive) | 43 µM (inactive) |  | 91.4 µM (inactive) | > 100 µM (inactive) |
| CCOC(=O)[C@H]1Nc2ccc(Cl)cc2[C@H]2c3ccccc3O[C@H]21 | > 100 µM (inactive) | 32.1 µM (inactive) | > 100 µM (inactive) | 30.1 µM (inactive) | > 100 µM (inactive) | > 100 µM (inactive) | > 100 µM (inactive) | > 100 µM (inactive) | > 100 µM (inactive) |
| Nc1nc2c3c(ncn3CC(O)CO2)n1 (stereo not drawn) | > 100 µM (inactive) | > 100 µM (inactive) | > 100 µM (inactive) | > 100 µM (inactive) |  | > 100 µM (inactive) | > 100 µM (inactive) | > 100 µM (inactive) | 6.31 µM (inactive) |
| CCOC(=N)/C(=C1\OC(=N)C(c2ccc(Cl)cc2)=C1O)c1ccc(Cl)cc1 | 25.2 µM (inactive) | 14.7 µM (inactive) | 19 µM (inactive) | 14.7 µM (inactive) | 11.4 µM (inactive) | 18.5 µM (inactive) | 25.6 µM (inactive) | 17.3 µM (inactive) | 16.9 µM (inactive) |
| Nc1ncnc2c1ncn2[C@]1(CO)C=C(CO)C(O)C1O (stereo partly drawn) | > 100 µM (inactive) | > 100 µM (inactive) | > 100 µM (inactive) | > 100 µM (inactive) | > 100 µM (inactive) | > 100 µM (inactive) | > 100 µM (inactive) | > 100 µM (inactive) |  |
| Cc1ccc(NC(=O)CCc2nc(N)nc(N)c2-c2ccccc2)cc1C | > 100 µM (inactive) | > 100 µM (inactive) | > 100 µM (inactive) | > 100 µM (inactive) | > 100 µM (inactive) | > 100 µM (inactive) | > 100 µM (inactive) | > 100 µM (inactive) | > 100 µM (inactive) |
| O=C(Nc1c(O)[nH]c(=S)[nH]c1=O)c1ccco1 |  | > 100 µM (inactive) | > 100 µM (inactive) |  |  | > 100 µM (inactive) | > 100 µM (inactive) | > 100 µM (inactive) | > 100 µM (inactive) |
| O=C(N/C(=C\c1ccc(/C=C(\NC(=O)c2ccccc2)c2nc3c(O)nc(S)nc3[nH]2)cc1)c1nc2c(O)nc(S)nc2[nH]1)c1ccccc1 | 62.4 µM (inactive) | 35.9 µM (inactive) | > 100 µM (inactive) | > 100 µM (inactive) | > 100 µM (inactive) | > 100 µM (inactive) | > 100 µM (inactive) | 34.3 µM (inactive) |  |
| O=C(C[n+]1ccccc1)N/N=C(/CCC(=O)N(Cc1ccccc1)Cc1ccccc1)CC(=O)c1ccccc1 | > 100 µM (inactive) | > 100 µM (inactive) | > 100 µM (inactive) | > 100 µM (inactive) |  | > 100 µM (inactive) | > 100 µM (inactive) | > 100 µM (inactive) | > 100 µM (inactive) |
| Cc1ccc(S(=O)(=O)OCC23CCC(C2)C2CC23)cc1 (stereo not drawn) |  | > 100 µM (inactive) | > 100 µM (inactive) | > 100 µM (inactive) |  | > 100 µM (inactive) |  | > 100 µM (inactive) | > 100 µM (inactive) |
